This experiment has as its target T1, human ALK5 (Homo sapiens, UniProt P36897).
T1 sequence (P36897 162-503): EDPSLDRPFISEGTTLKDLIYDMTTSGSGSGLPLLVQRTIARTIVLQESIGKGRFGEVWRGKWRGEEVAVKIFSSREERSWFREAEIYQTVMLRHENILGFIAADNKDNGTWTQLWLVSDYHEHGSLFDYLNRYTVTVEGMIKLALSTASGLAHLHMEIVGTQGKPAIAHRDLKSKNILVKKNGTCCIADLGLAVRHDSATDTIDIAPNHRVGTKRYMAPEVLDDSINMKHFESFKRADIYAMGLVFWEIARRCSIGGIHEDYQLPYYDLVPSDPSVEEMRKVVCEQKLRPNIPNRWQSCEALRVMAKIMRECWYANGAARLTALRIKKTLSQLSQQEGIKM
As to the kind of experiment: ALK5 Enzyme Assay 2 (fluorescence polarisation probe displacement). Type of experiment: binding. Details: 6His tagged human ALK5 (residues162-503) was grown and purified from insect cells; 6His; made in house; host or cells: insect cells. The settings on record: read-out: EAA2: activity (μM) using Enzyme Assay 2. The protocol: The ability of a compound to bind and inhibit ALK5 can be measured by its capacity to displace a probe molecule from recombinant ALK5 in an in vitro assay. Provided the probe molecule is derivatised with a fluorescent probe or is fluorescent itself, the binding affinity can be measured using Fluorescence Polarisation (FP). […] Assay measurements were performed in 50 mM HEPES pH7.4, 10 mM MgCl2, 1 mM DTT, 0.01% CHAPS in a final assay volume of 12 μl. Briefly 6 μl of ALK5 protein, final concentration of 3 μg/mL, was added to each well of a 384 well assay plate containing 12 nL of each concentration of test compound dissolved in DMSO. 6 μL of a solution containing an ALK5 FP probe ((2Z)-3-(6-{4-[2-({4-[(6-chloro[1,3]dioxolo[4,5-b]pyridin-7-yl)amino]-5-(1-methylethoxy)quinazolin-7-yl}oxy)ethyl]piperazin-1-yl}-6-oxohexyl)-2-[(2E,4E)-5-(3-ethyl-1,1-dimethyl-6,8-disulfo-1H-benzo[e]indolium-2-yl)penta-2,4-dien-1-ylidene]-1,1-dimethyl-6-sulfo-2,3-dihydro-1H-benzo[e]indole-8-sulfonate), final concentration 50 nM, and ATP, final concentration 1 μM.
(In fluorescence polarisation assays a small probe gives low polarisation when free and higher when bound to something large.)
With `CC(=O)NC1CCN(C(=O)c2cccc(Nc3cc(Oc4ccc(C)nc4C)ccn3)c2)C1` (centres unmarked) [Example 65, N-[1-(3-{[4-(2,6-Dimethylpyridin-3-yl)oxypyridin-2-yl]-amino}benzoyl)pyrrolidin-3-yl]acetamide], the IC50 came out at 0.0457 µM.

For `Cc1ccc(Oc2ccnc(Nc3ccc(S(=O)(=O)N(C)C)cc3)c2)c(C)n1` [Example 117, 4-{[4-(2,6-Dimethylpyridin-3-yl)oxypyridin-2-yl]amino}-N,N-dimethylbenzenesulfonamide], the IC50 came out at 0.37 µM.

Turning to `Cc1ccc(Oc2ccnc(Nc3ccc(CC#N)cc3)c2)c(C)n1` [Example 91, 2-(4-{[4-(2,6-Dimethylpyridin-3-yl)oxypyridin-2-yl]amino}phenyl)-acetonitrile], the IC50 was 0.0286 µM.

In the case of `Cc1cc(Oc2ccnc(Nc3cccc(C(=O)NC4CC4)c3)c2)c(-c2ccccn2)nc1C` [Example 72, N-Cyclopropyl-3-{[4-(5,6-dimethyl-2-pyridin-2-ylpyridin-3-yl)-oxypyridin-2-yl]amino}benzamide], the IC50 is 0.0108 µM.

For `Cc1ccc(Oc2ccnc(Nc3ccc(CC#N)cc3)c2)c(-c2ccco2)n1` [Example 159, 2-[4-({4-[2-(Furan-2-yl)-6-methylpyridin-3-yl]oxypyridin-2-yl}-amino)phenyl]acetonitrile], the IC50 came out at 0.00299 µM.

Consider `CCCc1nc(C)ccc1Oc1ccnc(Nc2cc(OC)c(OC)c(OC)c2)c1` [Example 166, 4-(6-Methyl-2-propylpyridin-3-yloxy)-N-(3,4,5-trimethoxy-phenyl)pyridin-2-amine], for which the IC50 is 0.597 µM.

Consider `Cc1ccc(Oc2ccnc(Nc3cccc(CN4CCN(C(=O)Nc5ccc(F)c(Cl)c5)CC4)c3)c2)c(C)n1` [Example 180, N-(3-Chloro-4-fluorophenyl)-4-[(3-{[4-(2,6-dimethylpyridin-3-yl)oxypyridin-2-yl]amino}phenyl)methyl]piperazine-1-carboxamide], for which the IC50 amounted to 0.0896 µM.

Consider `Cc1ccc(Oc2ccnc(Nc3ccc(C(=O)NCCN4CC5CCC(C4)O5)cc3)c2)c(C)n1` [Example 218, 4-{[4-(2,6-Dimethylpyridin-3-yl)oxypyridin-2-yl]amino}-N-[2-(8-oxa-3-azabicyclo[3.2.1]octan-3-yl)ethyl]benzamide], for which the IC50 is 0.0495 µM.

Consider `CCCCCNS(=O)(=O)c1ccc(Nc2cc(Oc3ccc(C)nc3C)ccn2)cc1` [Example 114, 4-{[4-(2,6-Dimethylpyridin-3-yl)oxypyridin-2-yl]amino}-N-pentylbenzenesulfonamide], for which the IC50 is 3.01 µM.

Take `Cc1ccc(Oc2ccnc(Nc3cccc(S(=O)(=O)N4CCOCC4)c3)c2)c(C)n1` [Example 119, 4-(2,6-Dimethylpyridin-3-yl)oxy-N-(3-morpholin-4-ylsulfonyl-phenyl)pyridin-2-amine]: the IC50 was 0.0319 µM.

Turning to `Cc1ccc(Oc2ccnc(Nc3cccc(CN4CCN(C(=O)CCNC(=O)OC(C)(C)C)CC4)c3)c2)c(C)n1` [Example 208, tert-Butyl N-(3-{4-[(3-{[4-(2,6-dimethylpyridin-3-yl)oxypyridin-2-yl]amino}phenyl)methyl]piperazin-1-yl}-3-oxopropyl)carbamate], the IC50 was 0.0204 µM.

Regarding `Cc1ccc(Oc2ccnc(Nc3cccc(C(=O)N4CCCC(C(N)=O)C4)c3)c2)c(C)n1` (centres unmarked) [Example 68, 1-(3-{[4-(2,6-Dimethylpyridin-3-yl)oxypyridin-2-yl]amino}-benzoyl)piperidine-3-carboxamide], the IC50 worked out at 0.00895 µM.

In the case of `Cc1ccc(Oc2ccnc(Nc3cccc(CN4CCN(C(=O)NC5CCCCC5)CC4)c3)c2)c(C)n1` [Example 178, N-Cyclohexyl-4-{3-[4-(2,6-dimethylpyridin-3-yloxy)pyridin-2-ylamino]benzyl}piperazine-1-carboxamide], the IC50 was 0.0237 µM.

Consider `Cc1ccc(Oc2ccnc(Nc3cccc(CN4CCN(C(=O)C5CCOCC5)CC4)c3)c2)c(C)n1` [Example 186, {4-[(3-{[4-(2,6-Dimethylpyridin-3-yl)oxypyridin-2-yl]amino}-phenyl)methyl]piperazin-1-yl}-(oxan-4-yl)methanone], for which the IC50 was 0.0238 µM.

Consider `CC(=O)N(C)c1ccc(Nc2cc(Oc3ccc(C)nc3C)ccn2)cc1` [Example 122, N-(4-{[4-(2,6-Dimethylpyridin-3-yl)oxypyridin-2-yl]amino}-phenyl)-N-methylacetamide], for which the IC50 turned out to be 0.215 µM.

Turning to `Cc1cc(Oc2ccnc(Nc3ccc(C(=O)NCCN)cc3)c2)c(-c2ccccn2)nc1C` [Example 200, N-(2-Aminoethyl)-4-{[4-(5,6-dimethyl-2-pyridin-2-ylpyridin-3-yl)oxypyridin-2-yl]amino}benzamide], the IC50 turned out to be 0.00485 µM.

`Cc1ccc(Oc2ccnc(Nc3ccc(S(N)(=O)=O)cc3)c2)c(-c2ccccc2)n1` [Example 149, 4-{[4-(6-Methyl-2-phenylpyridin-3-yl)oxypyridin-2-yl]amino}-benzenesulfonamide]: the IC50 is 0.014 µM.

Consider `Cc1cc(Oc2ccnc(Nc3cccc(S(N)(=O)=O)c3)c2)c(-c2ccccn2)nc1C` [Example 104, 3-{[4-(5,6-Dimethyl-2-pyridin-2-ylpyridin-3-yl)oxypyridin-2-yl]-amino}benzenesulfonamide], for which the IC50 is 0.0121 µM.

Regarding `COCCCNS(=O)(=O)c1ccc(Nc2cc(Oc3ccc(C)nc3C)ccn2)cc1` [Example 109, 4-{[4-(2,6-Dimethylpyridin-3-yl)oxypyridin-2-yl]amino}-N-(3-methoxypropyl)benzenesulfonamide], the IC50 turned out to be 0.269 µM.

For the compound `Cc1ccc(Oc2ccnc(Nc3ccc(CC#N)cc3)c2)c(-c2ccc(F)cc2)n1` [Example 155, 2-[4-({4-[2-(4-Fluorophenyl)-6-methylpyridin-3-yl]oxypyridin-2-yl}amino)phenyl]acetonitrile], the IC50 amounted to 0.0816 µM.

On to `Cc1cc(Oc2ccnc(Nc3cccc(C(=O)NCc4ccncc4)c3)c2)c(-c2ccccn2)nc1C` [Example 100, 3-{[4-(5,6-Dimethyl-2-pyridin-2-ylpyridin-3-yl)oxypyridin-2-yl]-amino}-N-(pyridin-4-ylmethyl)benzamide], for which the IC50 amounted to 0.00576 µM.

As to `Cc1ccc(Oc2ccnc(Nc3ccc(C(=O)NCCN4CCC(F)(F)CC4)cc3)c2)c(C)n1` [Example 219, N-[2-(4,4-Difluoropiperidin-1-yl)ethyl]-4-{[4-(2,6-dimethyl-pyridin-3-yl)oxypyridin-2-yl]amino}benzamide], the IC50 came to 0.108 µM.

For `Cc1ccc(Oc2ccnc(Nc3cccc(C#N)c3)c2)c(C)n1` [Example 125, 3-{[4-(2,6-Dimethylpyridin-3-yl)oxypyridin-2-yl]amino}-benzonitrile], the IC50 came to 0.192 µM.

On to `Cc1ccc(Oc2ccnc(Nc3cccc(C(=O)N(C4CCOCC4)C4CC4)c3)c2)c(C)n1` [Example 60, N-Cyclopropyl-3-{[4-(2,6-dimethylpyridin-3-yl)oxypyridin-2-yl]-amino}-N-(oxan-4-yl)benzamide], for which the IC50 came out at 0.022 µM.

Turning to `Cc1ccc(Oc2ccnc(Nc3cccc(S(N)(=O)=O)c3)c2)c(C)n1` [Example 105, 3-{[4-(2,6-Dimethylpyridin-3-yl)oxypyridin-2-yl]amino}benzene-sulfonamide], the IC50 came out at 0.00764 µM.

Regarding `Cc1ccc(Oc2ccnc(Nc3ccccc3)c2)c(C(=O)NCc2ccc[nH]2)n1` [Example 94, 3-(2-Anilinopyridin-4-yl)oxy-6-methyl-N-(1H-pyrrol-2-ylmethyl)-pyridine-2-carboxamide], the IC50 came out at 0.119 µM.

The record behind these values is patent US20090048269A1 (AstraZeneca AB, priority 2007, published 2009).
